Biological target: T1, Muscarinic acetylcholine receptor M5 (Homo sapiens, UniProt P08912)
T1 sequence (P08912 whole entry): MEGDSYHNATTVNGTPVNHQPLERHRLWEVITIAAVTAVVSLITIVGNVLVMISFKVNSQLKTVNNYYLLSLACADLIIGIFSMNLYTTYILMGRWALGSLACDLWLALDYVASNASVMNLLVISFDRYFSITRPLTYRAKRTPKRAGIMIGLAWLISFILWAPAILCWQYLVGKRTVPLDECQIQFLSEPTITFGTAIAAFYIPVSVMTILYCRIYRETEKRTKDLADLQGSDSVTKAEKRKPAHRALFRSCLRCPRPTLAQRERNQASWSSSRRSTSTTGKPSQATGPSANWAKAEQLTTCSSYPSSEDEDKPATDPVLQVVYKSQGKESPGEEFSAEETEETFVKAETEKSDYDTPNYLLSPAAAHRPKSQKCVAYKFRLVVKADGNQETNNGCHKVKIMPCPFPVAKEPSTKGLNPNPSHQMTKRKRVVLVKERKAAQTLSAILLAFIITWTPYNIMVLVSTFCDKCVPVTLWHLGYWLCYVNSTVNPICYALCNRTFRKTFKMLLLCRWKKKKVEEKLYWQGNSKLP
Assay: compound effect on ACh competition at M5, biochemical, [3H]N-methylscopolamine, acetylcholine (AID 2194)

COc1ccc(CN2C(=O)C(=O)c3cc(OC(F)(F)F)ccc32)cc1 [VU0238429]
Ki: 159 nM

Reference: BindingDB's records for doi:10.7270/Q2805129 (Vanderbilt Screening Center For Gpcrs, Ion Channels and …, 2009)
